Measured values: US12077503B2, “Substituted cyclic amides and their use as herbicides” (FMC CORPORATION, priority 2015, dated 2024)

What was measured:
Format in all cases: in vivo
rice (Oryra sativa) = assay: Test B flooded paddy test; settings: Flood, 250 g ai/ha; 0 to 100 scale where 0 is no effect and 100 is complete control; 13 to 15 d
In short: (§1)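 Percent control, visually estimated after 13–15 d in the greenhouse on a 0–100 basis, compares treated pots with untreated ones; compound was put into paddy water 3 cm above the soil when plants had two leaves.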

[1] = tested on: sedge, umbrella (small-flower umbrella sedge, Cyperus difformis); assay: Test B flooded paddy test; settings: Flood, 250 g ai/ha; 0 to 100 scale where 0 is no effect and 100 is complete control; 13 to 15 d
In short: as §1

[2] = tested on: ducksalad (Heteranthera limosa); assay: Test B flooded paddy test; settings: Flood, 250 g ai/ha; 0 to 100 scale where 0 is no effect and 100 is complete control; 13 to 15 d
In short: as §1

[3] = tested on: barnyardgrass (Echinochloa crus-galli); assay: Test B flooded paddy test; settings: Flood, 250 g ai/ha; 0 to 100 scale where 0 is no effect and 100 is complete control; 13 to 15 d
In short: as §1

[4] = tested on: blackgrass (Alopecurus myosuroides); assay: Test A postemergence; settings: for Blackgrass plant response rating: 125 g ai/ha, visual injury rating on 0 to 100 scale (0 no effect, 100 complete control), approx. 10 d; for Plant response rating, Blackgrass: 500 g ai/ha
In short: (§2)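 Treatment is preemergence as a directed soil spray after planting, or postemergence at the one- to two-leaf stage, with test chemical in a non-phytotoxic solvent mixture plus surfactant. Plants stay in the greenhouse about 10 d before visual injury scoring on a 0 to 100 scale versus untreated controls.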

[5] = tested on: pigweed (Amaranthus retroflexus); assay: Test A postemergence; settings: for Pigweed plant response rating: 125 g ai/ha, visual injury rating on 0 to 100 scale (0 no effect, 100 complete control), approx. 10 d; for Plant response rating, Pigweed: 500 g ai/ha
In short: as §2

[6] = tested on: Galium (catchweed bedstraw, Galium aparine); assay: Test A postemergence; settings: for Galium plant response rating: 125 g ai/ha, visual injury rating on 0 to 100 scale (0 no effect, 100 complete control), approx. 10 d; for Plant response rating, Galium: 500 g ai/ha
In short: as §2

corn (Zea mays) = assay: Test A postemergence; settings: for Corn plant response rating: 125 g ai/ha, visual injury rating on 0 to 100 scale (0 no effect, 100 complete control), approx. 10 d; for Plant response rating, Corn: 500 g ai/ha
In short: as §2

[7] = tested on: barnyardgrass (Echinochloa crus-galli); assay: Test A postemergence; settings: for Barnyardgrass plant response rating: 125 g ai/ha, visual injury rating on 0 to 100 scale (0 no effect, 100 complete control), approx. 10 d; for Plant response rating, Barnyardgrass: 500 g ai/ha
In short: as §2

[8] = tested on: giant foxtail (Setaria faberii); assay: Test A postemergence; settings: for Foxtail, Giant plant response rating: 125 g ai/ha, visual injury rating on 0 to 100 scale (0 no effect, 100 complete control), approx. 10 d; for Plant response rating, Foxtail, Giant: 500 g ai/ha
In short: as §2

Kochia (Kochia scoparia) [9] = assay: Test A postemergence; settings: for Kochia plant response rating: 125 g ai/ha, visual injury rating on 0 to 100 scale (0 no effect, 100 complete control), approx. 10 d; for Plant response rating, Kochia: 500 g ai/ha
In short: as §2

[10] = tested on: wheat (Triticum aestivum); assay: Test A postemergence; settings: for Wheat plant response rating: 125 g ai/ha, visual injury rating on 0 to 100 scale (0 no effect, 100 complete control), approx. 10 d; for Plant response rating, Wheat: 500 g ai/ha
In short: as §2

[11] = tested on: ryegrass, Italian (Italian ryegrass, Lolium multiflorum); assay: Test A postemergence; settings: for Ryegrass, Italian plant response rating: 125 g ai/ha, visual injury rating on 0 to 100 scale (0 no effect, 100 complete control), approx. 10 d; for Plant response rating, Ryegrass, Italian: 500 g ai/ha
In short: as §2

[12] = tested on: ragweed (common ragweed, Ambrosia elatior); assay: Test A postemergence; settings: for Ragweed plant response rating: 125 g ai/ha, visual injury rating on 0 to 100 scale (0 no effect, 100 complete control), approx. 10 d; for Plant response rating, Ragweed: 500 g ai/ha
In short: as §2

[13] = tested on: pigweed (Amaranthus retroflexus); assay: Test A preemergence; settings: for Plant response rating, Pigweed: 125 g ai/ha; for Pigweed plant response rating (0 to 100 scale, 0 is no effect, 100 is complete control): 500 g ai/ha, visual injury approx. 10 d
[14] = tested on: barnyardgrass (Echinochloa crus-galli); assay: Test A preemergence; settings: for Plant response rating, Barnyardgrass: 125 g ai/ha; for Barnyardgrass plant response rating (0 to 100 scale, 0 is no effect, 100 is complete control): 500 g ai/ha, visual injury approx. 10 d
In short: as §2

[15] = tested on: giant foxtail (Setaria faberii); assay: Test A preemergence; settings: for Plant response rating, Foxtail, Giant: 125 g ai/ha; for Foxtail, Giant plant response rating (0 to 100 scale, 0 is no effect, 100 is complete control): 500 g ai/ha, visual injury approx. 10 d
In short: as §2

Kochia (Kochia scoparia) [16] = assay: Test A preemergence; settings: for Plant response rating, Kochia: 125 g ai/ha; for Kochia plant response rating (0 to 100 scale, 0 is no effect, 100 is complete control): 500 g ai/ha, visual injury approx. 10 d
In short: as §2

[17] = tested on: ryegrass, Italian (Italian ryegrass, Lolium multiflorum); assay: Test A preemergence; settings: for Plant response rating, Ryegrass, Italian: 125 g ai/ha; for Ryegrass, Italian plant response rating (0 to 100 scale, 0 is no effect, 100 is complete control): 500 g ai/ha, visual injury approx. 10 d
In short: as §2

[18] = tested on: ragweed (common ragweed, Ambrosia elatior); assay: Test A preemergence; settings: for Plant response rating, Ragweed: 125 g ai/ha; for Ragweed plant response rating (0 to 100 scale, 0 is no effect, 100 is complete control): 500 g ai/ha, visual injury approx. 10 d
In short: as §2

[19] = postemergence, 0 to 100 scale, 0 no effect, 100 complete control
[20] = preemergence, 0 to 100 scale (0 no effect, 100 complete control)
[21] = Postemergence, 0 to 100 scale where 0 is no effect and 100 is complete control
[22] = Preemergence, visual injury after approximately 10 d, 0 to 100 scale where 0 is no effect and 100 is complete control

## CN1CC(c2ccc(Cl)cc2)C(C(=O)Nc2ccccc2S(C)(=O)=O)C1=O (stereo not drawn) [Compound 435]
Rice (Oryra sativa)
  Plant response rating, Rice: 0
[1]
  Plant response rating, Sedge, Umbrella: 0
[2]
  Plant response rating, Ducksalad: 90
[3]
  Plant response rating, Barnyardgrass: 60
[4]; postemergence
  Blackgrass plant response rating: 30
[4]; [19]
  Plant response rating, Blackgrass: 50
[5]; postemergence
  Pigweed plant response rating: 20
[5]; [19]
  Plant response rating, Pigweed: 50
[6]; postemergence
  Galium plant response rating: 50
[6]; [19]
  Plant response rating, Galium: 60
Corn (Zea mays); postemergence
  Corn plant response rating: 0
Corn (Zea mays); [19]
  Plant response rating, Corn: 20
[7]; postemergence
  Barnyardgrass plant response rating: 80
[7]; [19]
  Plant response rating, Barnyardgrass: 90
[8]; postemergence
  Foxtail, Giant plant response rating: 80
[8]; [19]
  Plant response rating, Foxtail, Giant: 80
Kochia (Kochia scoparia) [9]; postemergence
  Kochia plant response rating: 20
Kochia (Kochia scoparia) [9]; [19]
  Plant response rating, Kochia: 50
[10]; postemergence
  Wheat plant response rating: 0
[10]; [19]
  Plant response rating, Wheat: 60
[11]; postemergence
  Ryegrass, Italian plant response rating: 40
[11]; [19]
  Plant response rating, Ryegrass, Italian: 40
[12]; postemergence
  Ragweed plant response rating: 40
[12]; [19]
  Plant response rating, Ragweed: 60
[13]; [20]
  Plant response rating, Pigweed: 60
[13]; Preemergence
  Pigweed plant response rating (0 to 100 scale, 0 is no effect, 100 is complete control): 80
[14]; [20]
  Plant response rating, Barnyardgrass: 80
[14]; Preemergence
  Barnyardgrass plant response rating (0 to 100 scale, 0 is no effect, 100 is complete control): 90
[15]; [20]
  Plant response rating, Foxtail, Giant: 90
[15]; Preemergence
  Foxtail, Giant plant response rating (0 to 100 scale, 0 is no effect, 100 is complete control): 90
Kochia (Kochia scoparia) [16]; [20]
  Plant response rating, Kochia: 60
Kochia (Kochia scoparia) [16]; Preemergence
  Kochia plant response rating (0 to 100 scale, 0 is no effect, 100 is complete control): 80
[17]; [20]
  Plant response rating, Ryegrass, Italian: 0
[17]; Preemergence
  Ryegrass, Italian plant response rating (0 to 100 scale, 0 is no effect, 100 is complete control): 20
[18]; [20]
  Plant response rating, Ragweed: 20
[18]; Preemergence
  Ragweed plant response rating (0 to 100 scale, 0 is no effect, 100 is complete control): 70

## COCc1cccc(C2CNC(=O)C2C(=O)Nc2ccc(F)cc2F)c1 (stereo not drawn) [Compound 499]
Rice (Oryra sativa)
  Plant response rating, Rice: 15
[1]
  Plant response rating, Sedge, Umbrella: 0
[2]
  Plant response rating, Ducksalad: 80
[3]
  Plant response rating, Barnyardgrass: 50
[4]; postemergence
  Blackgrass plant response rating: 0
[4]; [21]
  Plant response rating, Blackgrass: 0
[5]; postemergence
  Pigweed plant response rating: 0
[5]; [21]
  Plant response rating, Pigweed: 0
[6]; postemergence
  Galium plant response rating: 0
[6]; [21]
  Plant response rating, Galium: 40
Corn (Zea mays); postemergence
  Corn plant response rating: 0
Corn (Zea mays); [21]
  Plant response rating, Corn: 0
[7]; postemergence
  Barnyardgrass plant response rating: 30
[7]; [21]
  Plant response rating, Barnyardgrass: 80
[8]; postemergence
  Foxtail, Giant plant response rating: 20
[8]; [21]
  Plant response rating, Foxtail, Giant: 30
Kochia (Kochia scoparia) [9]; postemergence
  Kochia plant response rating: 0
Kochia (Kochia scoparia) [9]; [21]
  Plant response rating, Kochia: 0
[10]; postemergence
  Wheat plant response rating: 0
[10]; [21]
  Plant response rating, Wheat: 0
[11]; postemergence
  Ryegrass, Italian plant response rating: 0
[11]; [21]
  Plant response rating, Ryegrass, Italian: 0
[12]; postemergence
  Ragweed plant response rating: 0
[12]; [21]
  Plant response rating, Ragweed: 0
[13]; [22]
  Plant response rating, Pigweed: 0
[13]; Preemergence
  Pigweed plant response rating (0 to 100 scale, 0 is no effect, 100 is complete control): 0
[14]; [22]
  Plant response rating, Barnyardgrass: 30
[14]; Preemergence
  Barnyardgrass plant response rating (0 to 100 scale, 0 is no effect, 100 is complete control): 90
[15]; [22]
  Plant response rating, Foxtail, Giant: 30
[15]; Preemergence
  Foxtail, Giant plant response rating (0 to 100 scale, 0 is no effect, 100 is complete control): 90
Kochia (Kochia scoparia) [16]; [22]
  Plant response rating, Kochia: 0
Kochia (Kochia scoparia) [16]; Preemergence
  Kochia plant response rating (0 to 100 scale, 0 is no effect, 100 is complete control): 30
[17]; [22]
  Plant response rating, Ryegrass, Italian: 0
[17]; Preemergence
  Ryegrass, Italian plant response rating (0 to 100 scale, 0 is no effect, 100 is complete control): 0
[18]; [22]
  Plant response rating, Ragweed: 0
[18]; Preemergence
  Ragweed plant response rating (0 to 100 scale, 0 is no effect, 100 is complete control): 0
